# Data from the NIST ThermoML archive (doi:10.1021/je050141m).
# ± gives the expanded uncertainty stated by the source.
# Conditions: Liquid, Ebulliometric method (Recirculating still)
smiles,measurement,setting,value
CCCCCCO [hexan-1-ol],vapor or sublimation pressure,391.07 K,25 ± 0.2 kPa
same,vapor or sublimation pressure,395.62 K,30 ± 0.3 kPa
same,vapor or sublimation pressure,399.65 K,35 ± 0.3 kPa
same,vapor or sublimation pressure,403.15 K,40 ± 0.3 kPa
same,vapor or sublimation pressure,406.36 K,45 ± 0.4 kPa
same,vapor or sublimation pressure,409.25 K,50 ± 0.4 kPa
same,vapor or sublimation pressure,411.92 K,55 ± 0.5 kPa
same,vapor or sublimation pressure,414.44 K,60 ± 0.5 kPa
same,vapor or sublimation pressure,416.75 K,65 ± 0.5 kPa
same,vapor or sublimation pressure,418.98 K,70 ± 0.6 kPa
same,vapor or sublimation pressure,421.05 K,75 ± 0.6 kPa
same,vapor or sublimation pressure,423.01 K,80 ± 0.6 kPa
same,vapor or sublimation pressure,424.87 K,85 ± 0.7 kPa
same,vapor or sublimation pressure,426.69 K,90 ± 0.7 kPa
CCCCCCOC(C)=O [hexyl ethanoate],vapor or sublimation pressure,397.97 K,25 ± 0.2 kPa
same,vapor or sublimation pressure,403.36 K,30 ± 0.2 kPa
same,vapor or sublimation pressure,408.02 K,35 ± 0.3 kPa
same,vapor or sublimation pressure,412.14 K,40 ± 0.3 kPa
same,vapor or sublimation pressure,416.02 K,45 ± 0.3 kPa
same,vapor or sublimation pressure,419.47 K,50 ± 0.4 kPa
same,vapor or sublimation pressure,422.59 K,55 ± 0.4 kPa
same,vapor or sublimation pressure,425.57 K,60 ± 0.4 kPa
same,vapor or sublimation pressure,428.26 K,65 ± 0.5 kPa
same,vapor or sublimation pressure,430.93 K,70 ± 0.5 kPa
same,vapor or sublimation pressure,433.38 K,75 ± 0.5 kPa
same,vapor or sublimation pressure,435.68 K,80 ± 0.6 kPa
same,vapor or sublimation pressure,437.92 K,85 ± 0.6 kPa
same,vapor or sublimation pressure,439.98 K,90 ± 0.6 kPa
